Patent US20250115571A1, “OXOPIPERAZINE DERIVATIVES” (Inthera Bioscience AG, priority 2017, published 2025)

Columns and labels:
Assay in all cases: 5-day cell proliferation assay (CTG)
Assay type in all cases: cell-based
A549 = conditions: Homo sapiens, 120 h, A549, Lung
Experimental: (§1) For screening using a proliferation assay, the cells used were cultured at 37° C. with 5% CO2, except for those being cultured with L-15 medium (37° C. and 100% air, TABLE 7). Compound stock solutions (10 mM) were made in sterile water, aliquoted and stored at room temperature. Cisplatin was used as reference Control. Plastic consumables, culture media and supplements were purchased from well-known suppliers (TABLE 8).
(§2) Cell seeding (day −1). When necessary, cells were trypsinized using standard methods (see e.g. example 01). Cells were collected and resuspended in 5-6 mL of appropriate culture medium, counted and diluted to the needed density. Fifty-four μl (microliter) cells were seeded per well in a 384-well plate. Extra four wells per cell line were seeded on an additional plate for Day 0 reading (baseline cell density). Cells were incubated at 37° C. overnight.
(§3) Compound treatment and Day 0 reading (day 0). Tenfold final concentration of test compounds and Cisplatin were prepared in cell culture media (work dilutions). Six μl of work dilution solutions were dispensed into the corresponding wells in 384-well plates to bring the total volume up to 60 μl. Conditions were tested in triplicate. The plates were then incubated at 37° C. for five days. For the day 0 reading, 30 μl of CTG and 6 μl cell culture medium were added to the day 0 plates, contents mixed for 2 min on a plate shaker, and the plates incubated for 10 min at room temperature in the dark. Luminescence was recorded on an EnVision Multi Label Reader (2104-0010A, PerkinElmer, USA).
(§4) Endpoint CTG reading (day 5). The amounts of cells in the plates was determined by endpoint CTG-test. Thirty μl of CTG were added to the 60 μl of cell culture per well, contents mixed for 2 min on a plate shaker, and the plates incubated for 10 min at room temperature in the dark. Luminescence was recorded on an EnVision Multi Label Reader.
(§5) Data analysis. Fifty percent growth inhibition concentrations (GI50) were calculated based on percentage of control data (untreated cells) from each cell line (TABLE 5 (this example) and TABLE 6). Curves were fitted using a nonlinear regression model with a sigmoidal dose response. Examples of obtained curves are depicted in FIG. 2A-2F.

MKN-45 = conditions: Homo sapiens, 120 h, MKN-45, Stomach/Gastric
Experimental: as §1, §2, §3, §4, §5

BT-20 = conditions: Homo sapiens, 120 h, BT-20, Breast
Experimental: as §1, §2, §3, §4, §5

MIA PaCa-2 = conditions: Homo sapiens, 120 h, MIA PaCa-2, Pancreas
Experimental: as §1, §2, §3, §4, §5

VCAP = conditions: Homo sapiens, 120 h, Prostate
Experimental: as §1, §2, §3, §4, §5

Caco-2 = conditions: Homo sapiens, 120 h, Caco-2, Colorectal
Experimental: as §1, §2, §3, §4, §5

Hep G2 = conditions: Homo sapiens, HepG2, 120 h, Hep G2, Liver
Experimental: as §1, §2, §3, §4, §5

SF268 = conditions: Homo sapiens, SF-268, 120 h, SF268, Brain/Nerves
Experimental: as §1, §2, §3, §4, §5

SK-MEL28 = conditions: Homo sapiens, SK-MEL-28, 120 h, SK-MEL28, Skin
Experimental: as §1, §2, §3, §4, §5

HCC4006 = conditions: Homo sapiens, 120 h, HCC4006, Lung
Experimental: as §1, §2, §3, §4, §5

Daudi = conditions: Homo sapiens, 120 h, Lymphoma
Experimental: as §1, §2, §3, §4, §5

AU565 = conditions: Homo sapiens, 120 h, AU565, Breast
Experimental: as §1, §2, §3, §4, §5

Kasumi-1 = conditions: Homo sapiens, 120 h, Kasumi-1, Leukemia
Experimental: as §1, §2, §3, §4, §5

MCF7 = conditions: Homo sapiens, 120 h, MCF7, Breast
Experimental: as §1, §2, §3, §4, §5

Ramos = conditions: Homo sapiens, 120 h, Lymphoma
Experimental: as §1, §2, §3, §4, §5

A375 = conditions: Homo sapiens, A-375, 120 h, A375, Skin
Experimental: as §1, §2, §3, §4, §5

SK-BR-3 = conditions: Homo sapiens, 120 h, SK-BR-3, Breast
Experimental: as §1, §2, §3, §4, §5

MOLT-4 = conditions: Homo sapiens, 120 h, MOLT-4, Leukemia
Experimental: as §1, §2, §3, §4, §5

WM-266-4 = conditions: Homo sapiens, 120 h, WM-266-4, Skin
Experimental: as §1, §2, §3, §4, §5

U937 = conditions: Homo sapiens, U-937, 120 h, U937, Leukemia
Experimental: as §1, §2, §3, §4, §5

SW480 = conditions: Homo sapiens, 120 h, SW480, Colorectal
Experimental: as §1, §2, §3, §4, §5

Granta-519 = conditions: Homo sapiens, 120 h, Granta-519, Lymphoma
Experimental: as §1, §2, §3, §4, §5

K562 = conditions: Homo sapiens, 120 h, K562, Leukemia
Experimental: as §1, §2, §3, §4, §5

786-O = conditions: Homo sapiens, 786-0, 120 h, Kidney
Experimental: as §1, §2, §3, §4, §5

DoTc2 4510 = conditions: Homo sapiens, 120 h, DoTc2 4510, Cervix
Experimental: as §1, §2, §3, §4, §5

OVCAR-4 = conditions: Homo sapiens, 120 h, OVCAR-4, Ovary
Experimental: as §1, §2, §3, §4, §5

HCC2935 = conditions: Homo sapiens, 120 h, HCC2935, Lung, highest tested concentration 10 μM
Experimental: as §1, §2, §3, §4, §5

Raji = conditions: Homo sapiens, 120 h, Lymphoma
Experimental: as §1, §2, §3, §4, §5

LNCaP-FGC = conditions: Homo sapiens, 120 h, Prostate
Experimental: as §1, §2, §3, §4, §5

PC-3 = conditions: Homo sapiens, 120 h, PC-3, Prostate
Experimental: as §1, §2, §3, §4, §5

SMILES: CC(C)C[C@@H]1NCCN([C@@H](CC(C)C)C(=O)N2CCC3(C[C@@H]2C)OCC(CN2CCCC2)CO3)C1=O (stereo partly drawn) [Compound 258, (3S)-1-[(2S)-4-methyl-1-oxo-1-[(3s,6s,8S)-8-methyl-3-(pyrrolidin-1-ylmethyl)-1,5-dioxa-9-azaspiro[5.5]undec-an-9-yl]pentan-2-yl]-3-(2-methylpropyl)piper-azin-2-one (^≠), isomer Z]
- GI50 (A549): 10 nM
- GI50 (MKN-45): 4 nM
- GI50 (BT-20): 15 nM
- GI50 (MIA PaCa-2): 11 nM
- GI50 (VCAP): 128 nM
- GI50 (Caco-2): 10 nM
- GI50 (Hep G2): 6 nM
- GI50 (SF268): 30 nM
- GI50 (SK-MEL28): 50 nM
- GI50 (HCC4006): 8 nM
- GI50 (Daudi): 80 nM
- GI50 (AU565): 3 nM
- GI50 (Kasumi-1): 19 nM
- GI50 (MCF7): 55 nM
- GI50 (Ramos): 27 nM
- GI50 (A375): 6 nM
- GI50 (SK-BR-3): 12 nM
- GI50 (MOLT-4): 9 nM
- GI50 (WM-266-4): 41 nM
- GI50 (U937): 22 nM
- GI50 (SW480): 22 nM
- GI50 (Granta-519): 38 nM
- GI50 (K562): 17 nM
- GI50 (786-O): 28 nM
- GI50 (DoTc2 4510): 14 nM
- GI50 (OVCAR-4): 12 nM
- GI50 (HCC2935): > 10000 nM
- GI50 (Raji): 28 nM
- GI50 (LNCaP-FGC): 2 nM
- GI50 (PC-3): 13 nM
